{
  "source": "patent US11963942B2",
  "about": "“Oral taxane compositions and methods” (Athenex HK Innovative Limited, priority 2015, dated 2024)",
  "origin": "cited, not measured here",
  "target": "MDR1 (ABCB1) (Homo sapiens, UniProt P08183)",
  "sequence (P08183 whole entry, species assumed)": "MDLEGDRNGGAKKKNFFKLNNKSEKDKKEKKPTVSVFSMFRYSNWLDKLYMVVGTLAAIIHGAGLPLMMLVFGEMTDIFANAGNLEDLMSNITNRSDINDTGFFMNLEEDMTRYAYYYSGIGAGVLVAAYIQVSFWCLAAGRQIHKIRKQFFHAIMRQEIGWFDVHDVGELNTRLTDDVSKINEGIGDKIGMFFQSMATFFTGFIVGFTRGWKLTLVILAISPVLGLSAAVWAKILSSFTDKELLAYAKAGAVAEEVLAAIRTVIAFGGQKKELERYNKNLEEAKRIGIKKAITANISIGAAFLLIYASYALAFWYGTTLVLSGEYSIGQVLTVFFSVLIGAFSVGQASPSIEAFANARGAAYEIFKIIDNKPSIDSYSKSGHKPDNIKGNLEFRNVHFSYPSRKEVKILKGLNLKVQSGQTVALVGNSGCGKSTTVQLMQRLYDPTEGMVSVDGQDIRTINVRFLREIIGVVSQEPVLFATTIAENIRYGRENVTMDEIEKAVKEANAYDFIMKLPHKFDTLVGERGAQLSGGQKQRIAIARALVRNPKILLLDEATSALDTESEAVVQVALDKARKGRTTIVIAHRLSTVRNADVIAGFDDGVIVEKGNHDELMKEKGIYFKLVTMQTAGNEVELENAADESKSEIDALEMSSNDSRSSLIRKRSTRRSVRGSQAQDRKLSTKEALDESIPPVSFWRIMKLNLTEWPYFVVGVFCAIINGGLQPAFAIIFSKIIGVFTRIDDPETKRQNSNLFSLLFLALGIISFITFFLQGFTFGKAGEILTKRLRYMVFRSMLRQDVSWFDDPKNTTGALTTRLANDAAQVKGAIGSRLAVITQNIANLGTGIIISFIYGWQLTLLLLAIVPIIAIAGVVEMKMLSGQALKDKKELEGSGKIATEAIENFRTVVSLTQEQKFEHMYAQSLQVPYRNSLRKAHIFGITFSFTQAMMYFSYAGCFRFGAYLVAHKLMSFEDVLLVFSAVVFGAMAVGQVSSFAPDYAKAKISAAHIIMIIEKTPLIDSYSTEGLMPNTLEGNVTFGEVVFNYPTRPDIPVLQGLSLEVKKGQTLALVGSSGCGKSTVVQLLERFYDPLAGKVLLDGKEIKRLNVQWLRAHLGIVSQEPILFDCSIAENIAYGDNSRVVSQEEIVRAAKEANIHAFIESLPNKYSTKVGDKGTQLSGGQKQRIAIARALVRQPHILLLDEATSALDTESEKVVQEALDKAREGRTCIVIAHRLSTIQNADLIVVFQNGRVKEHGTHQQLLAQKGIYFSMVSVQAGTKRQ",
  "details": "Kwak et al., Eur. J. Pharm. 627, 92-98 (2010)",
  "data": [
    {"smiles": "COc1cc2c(cc1OC)CN(CCc1ccc(-n3nnc(-c4cc(OC)c(OC)cc4NC(=O)c4cc(=O)c5ccccc5o4)n3)cc1)CC2", "note": "[HM30181, 4-oxo-4H-chromene-2-carboxylic acid [2-(2-(4-[2-(6,7-dimethoxy-3,4-dihydro-1H-isoquinolin-2-yl)-ethyl]-phenyl)-2H-tetrazol-5-yl)-4,5-dimethoxy-phenyl]-amide]", "values": [
      {"measurement": "potency compared with cyclosporine A", "result": "more potent than cyclosporine A"}
    ]}
  ]
}
